According to ChEMBL document CHEMBL5576053, “Nonclassical Zwitterions as a Design Principle to Reduce Lipophilicity without Impacting Permeability” (J Med Chem, 2024):

Tests used:
Assay type in all cases: physicochemical
[1] = Basic ionization constant, pKa of the compound
[2] = Ionization constant, pKa of compound
[3] = Acidic ionization constant, pKa of the compound
[4] = 1-octanol/water partition coefficient, acidic logP of compound by shake flask method
[5] = Ionization constant, pKa of compound at pH 5 to 10
[6] = Ionization constant, pKa of compound at pH 1 to 5
[7] = Acidic ionization constant, pKa of the compound by potentiometric titration analysis

| Structure (SMILES) | pKa [1] | pKa [3] | also measured |
| --- | --- | --- | --- |
| CN1C(C(=O)Nc2ccccn2)=C(O)c2sc(Cl)cc2S1(=O)=O [LORNOXICAM] | < 2 |  |  |
| Cc1ncc(CO)c(CO)c1O [PYRIDOXINE] |  |  | pKa [2]: 5 |
| CCc1cc(/C(C)=N/OCc2ccc(C3CCCCC3)c(C(F)(F)F)c2)ccc1CN1CC(C(=O)O)C1 [SIPONIMOD] |  |  | logP [4]: 8.9 |
| N[C@@H](Cc1cc(I)c(Oc2cc(I)c(O)c(I)c2)c(I)c1)C(=O)O [LEVOTHYROXINE] |  |  | logP [4]: 5.4 |
| CCCC1C(=O)N2C(N(C)C)=Nc3ccc(C)cc3N2C1=O (stereo unspecified) [APAZONE] | < 2 |  |  |
| NC(=O)c1ncn([C@@H]2O[C@H](CO)[C@@H](O)[C@H]2O)c1O [MIZORIBINE] |  |  | pKa [7]: 6.5 |
| Cc1cc(NC(=O)C2=C(O)c3ccccc3S(=O)(=O)N2C)no1 [ISOXICAM] | < 2 |  |  |
| N[C@@H](Cc1cc(I)c(Oc2ccc(O)c(I)c2)c(I)c1)C(=O)O [LIOTHYRONINE] |  |  | logP [4]: 4.1 |
| CN1C(C(=O)Nc2ccccn2)=C(O)c2ccccc2S1(=O)=O [PIROXICAM] |  |  | logP [4]: 4 |

Second part, led by results:

| pKa [1] | pKa [3] | Structure (SMILES) | also measured |
| --- | --- | --- | --- |
| 2.2 |  | O=C(NC1CCCCC1)c1ncccc1O |  |
| 2.1 |  | CC(C)(C)NC(=O)c1ccccn1 |  |
| < 2 | 8.5 | Cc1ccnc(C(=O)NC2CCCCC2)c1O |  |
| 2.3 | 9.1 | COc1ccnc(C(=O)NC2CCCCC2)c1O |  |
| 2.3 | 7.9 | CC(C)CCNC(=O)c1ncccc1O | pKa [5]: 7.85; pKa [6]: 2.4 |
|  | 8 | CNC(=O)c1ccccc1O |  |
| 2.2 |  | CCOC(=O)CNC(=O)c1ncccc1O |  |
| < 2 | 6.8 | O=C(NC1CCCCC1)c1nccc(Cl)c1O |  |
| 2.9 |  | COc1cccc(CNC(=O)c2ncccc2OC)c1 |  |
| < 2 | 3.1 | CN1C(C(=O)Nc2nccs2)=C(O)c2ccccc2S1(=O)=O [SUDOXICAM] |  |
